Measurements taken from US12534452B2, “N-(1H-imidazol-2-yl)benzamide compound and pharmaceutical composition comprising the same as active ingredient” (KAINOS MEDICINE, INC., priority 2019, dated 2026).
pIC50: −log10 of the molar value.

These compounds were tested against IRAK4 (Homo sapiens (Human), UniProt Q9NWZ3) (assay: In vitro IRAK4 phosphorylation activity assay). Conditions: [γ-33P]-ATP, myelin basic protein substrate, 40 minutes at room temperature; categories.
Assay type: biochemical
Experimental: In vitro IRAK4 analysis was performed using N-(1H-imidazol-2-yl)benzamide compounds according to the present invention. All compounds were prepared by dissolving in DMSO. N-(1H-imidazol-2-yl)benzamide compound according to the present invention and other elements for the reaction were added to an assay well. In the standard Kinase Profiler service the preincubation step between the N-(1H-imidazol-2-yl)benzamide compound and kinase was not performed before the reaction.
To the positive control well, all reactants except for the N-(1H-imidazol-2-yl)benzamide compound according to the present invention were added, and DMSO was added to remove the solvent effect. A known control inhibitor having the following structure was added to the blank wells to inhibit kinase activity and establish a base-line.
IRAK4 was incubated with 8 mM MOPS pH 7.0, 0.2 mM EDTA, 0.33 mg/mL myelin basic protein, 10 mM magnesium acetate and [γ-33P]-ATP (specific activity approx. 500 cpm/pmol, concentration as required). The reaction was initiated by the addition of the MgATP mix. After incubation for 40 minutes at room temperature, the reaction was stopped by the addition of 3% phosphoric acid solution. 10 μL of the reaction was then spotted onto a P30 filtermat and washed three times for 5 minutes in 75 mM phosphoric acid and once in methanol prior to drying and scintillation counting.
The results are shown in Table 26 below, where the phosphorylation activity of IC50 values for IRAK4 is shown in categories (A: <50 nM, B: 50-100 nM, C: >100 nM).

Sequence of IRAK4 (Q9NWZ3 whole entry): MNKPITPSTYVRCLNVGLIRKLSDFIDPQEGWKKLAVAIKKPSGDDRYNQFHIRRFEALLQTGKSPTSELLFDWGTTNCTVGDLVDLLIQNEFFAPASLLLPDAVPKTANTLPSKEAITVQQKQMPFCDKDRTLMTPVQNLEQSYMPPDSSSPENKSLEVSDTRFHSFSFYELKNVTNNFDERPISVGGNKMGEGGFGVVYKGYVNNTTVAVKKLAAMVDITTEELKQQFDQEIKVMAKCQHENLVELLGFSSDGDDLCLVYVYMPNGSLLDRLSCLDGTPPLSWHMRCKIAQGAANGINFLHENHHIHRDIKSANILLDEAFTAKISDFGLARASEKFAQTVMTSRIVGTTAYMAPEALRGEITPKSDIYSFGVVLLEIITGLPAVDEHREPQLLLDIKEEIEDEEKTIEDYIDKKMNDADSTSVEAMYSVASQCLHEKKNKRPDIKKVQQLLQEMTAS

| Structure (SMILES) | pIC50 |
| --- | --- |
| C[C@@H]1CCC[C@H](C)N1C(=O)CCc1cn(-c2ccccc2)c(NC(=O)c2cccc(-c3cn[nH]c3)c2)n1 [Example 32, N-(4-(3-((2R,6S)-2,6-dimethylpiperidin-1-yl)-3-oxopropyl)-1-phenyl-1H-imidazol-2-yl)-3-(1H-pyrazol-4-yl)benzamide] | > 7.30 |
| CNC(=O)CCc1cn(-c2ccccc2)c(NC(=O)c2cccc(-c3cn[nH]c3)c2)n1 [Example 33, N-(4-(3-(methylamino)-3-oxopropyl)-1-phenyl-1H-imidazol-2-yl)-3-(1H-pyrazol-4-yl)benzamide] | > 7.30 |
| CC1(C)CCCN(C(=O)CCc2cn(-c3ccccc3)c(NC(=O)c3cccc(-c4cn[nH]c4)c3)n2)C1 [Example 34, N-(4-(3-(3,3-dimethylpiperidin-1-yl)-3-oxopropyl)-1-phenyl-1H-imidazol-2-yl)-3-(1H-pyrazol-4-yl)benzamide] | > 7.30 |
| CC1(C)CCN(C(=O)CCc2cn(-c3ccccc3)c(NC(=O)c3cccc(-c4cn[nH]c4)c3)n2)CC1 [Example 35, N-(4-(3-(4,4-dimethylpiperidin-1-yl)-3-oxopropyl)-1-phenyl-1H-imidazol-2-yl)-3-(1H-pyrazol-4-yl)benzamide] | > 7.30 |
| O=C(Nc1nc(CCC(=O)N2CCCC(C(=O)O)C2)cn1-c1ccccc1)c1cccc(-c2cn[nH]c2)c1 [Example 36, (S)-1-(3-(2-(3-(1H-pyrazol-4-yl)benzamido)-1-phenyl-1H-imidazol-4-yl)propanoyl)piperidine-3-carboxylic acid] | > 7.30 |
| O=C(Nc1nc(CCC(=O)N2CCCC[C@H]2C(F)(F)F)cn1-c1ccccc1)c1cccc(-c2cn[nH]c2)c1 [Example 38, (S)—N-(4-(3-oxo-3-(2-(trifluoromethyl)piperidin-1-yl)propyl)-1-phenyl-1H-imidazol-2-yl)-3-(1H-pyrazol-4-yl)benzamide] | > 7.30 |
| O=C(Nc1nc(CCC(=O)N2CCCC[C@@H]2C(F)(F)F)cn1-c1ccccc1)c1cccc(-c2cn[nH]c2)c1 [Example 39, (R)—N-(4-(3-oxo-3-(2-(trifluoromethyl)piperidin-1-yl)propyl)-1-phenyl-1H-imidazol-2-yl)-3-(1H-pyrazol-4-yl)benzamide] | 7.00 to 7.30 |
| N[C@@H]1CCCN(C(=O)CCc2cn(-c3ccccc3)c(NC(=O)c3cccc(-c4cn[nH]c4)c3)n2)C1 [Example 40, (R)—N-(4-(3-(3-aminopiperidin-1-yl)-3-oxopropyl)-1-phenyl-1H-imidazol-2-yl)-3-(1H-pyrazol-4-yl)benzamide] | > 7.30 |
| CNC(=O)Cc1cn(-c2ccccc2)c(NC(=O)c2cccc(-c3cn[nH]c3)c2)n1 [Example 41, N-(4-(2-(methylamino)-2-oxoethyl)-1-phenyl-1H-imidazol-2-yl)-3-(1H-pyrazol-4-yl)benzamide] | < 7.00 |
| COC(=O)Cc1cn(-c2ccccc2)c(NC(=O)c2cccc(-c3cn[nH]c3)c2)n1 [Example 42, methyl 2-(2-(3-(1H-pyrazol-4-yl)benzamido)-1-phenyl-1H-imidazol-4-yl)acetate] | 7.00 to 7.30 |
| O=C(O)Cc1cn(-c2ccccc2)c(NC(=O)c2cccc(-c3cn[nH]c3)c2)n1 [Example 43, 2-(2-(3-(1H-pyrazol-4-yl)benzamido)-1-phenyl-1H-imidazol-4-yl)acetic acid] | < 7.00 |
| COC[C@@H]1CCCN1NC(=O)Cc1cn(-c2ccccc2)c(NC(=O)c2cccc(-c3cn[nH]c3)c2)n1 [Example 44, (S)—N-(4-(2-((2-(methoxymethyl)pyrrolidin-1-yl)amino)-2-oxoethyl)-1-phenyl-1H-imidazol-2-yl)-3-(1H-pyrazol-4-yl)benzamide] | < 7.00 |
| COC[C@H]1CCCN1NC(=O)Cc1cn(-c2ccccc2)c(NC(=O)c2cccc(-c3cn[nH]c3)c2)n1 [Example 45, (R)—N-(4-(2-((2-(methoxymethyl)pyrrolidin-1-yl)amino)-2-oxoethyl)-1-phenyl-1H-imidazol-2-yl)-3-(1H-pyrazol-4-yl)benzamide] | 7.00 to 7.30 |
| COC[C@@H]1CCCN1C(=O)Cc1cn(-c2ccccc2)c(NC(=O)c2cccc(-c3cn[nH]c3)c2)n1 [Example 46, (S)—N-(4-(2-(2-(methoxymethyl)pyrrolidin-1-yl)-2-oxoethyl)-1-phenyl-1H-imidazol-2-yl)-3-(1H-pyrazol-4-yl)benzamide] | 7.00 to 7.30 |
| COC[C@H]1CCCN1C(=O)Cc1cn(-c2ccccc2)c(NC(=O)c2cccc(-c3cn[nH]c3)c2)n1 [Example 47, (R)—N-(4-(2-(2-(methoxymethyl)pyrrolidin-1-yl)-2-oxoethyl)-1-phenyl-1H-imidazol-2-yl)-3-(1H-pyrazol-4-yl)benzamide] | < 7.00 |
| CNC(=O)Cc1cn(-c2ccccc2)c(NC(=O)c2ccc(-c3cn[nH]c3)cc2)n1 [Example 48, N-(4-(2-(methylamino)-2-oxoethyl)-1-phenyl-1H-imidazol-2-yl)-4-(1H-pyrazol-4-yl)benzamide] | < 7.00 |

| Structure (SMILES) | pIC50 |
| --- | --- |
| CNC(=O)Cc1cn(-c2ccccc2)c(NC(=O)c2ccc3[nH]ncc3c2)n1 [Example 49, N-(4-(2-(methylamino)-2-oxoethyl)-1-phenyl-1H-imidazol-2-yl)-1H-indazole-5-carboxamide] | < 7.00 |
| CNC(=O)Cc1cn(-c2ccccc2)c(NC(=O)c2ccccc2)n1 [Example 50, N-(4-(2-(methylamino)-2-oxoethyl)-1-phenyl-1H-imidazol-2-yl)benzamide] | < 7.00 |
| CNC(=O)Cc1cn(-c2ccccc2)c(NC(=O)c2cccnc2)n1 [Example 51, N-(4-(2-(methylamino)-2-oxoethyl)-1-phenyl-1H-imidazol-2-yl)nicotinamide] | < 7.00 |
| O=C(CCCc1cn(-c2ccccc2)c(NC(=O)c2cccc(-c3cn[nH]c3)c2)n1)Nc1ccccc1 [Example 52, N-(4-(4-oxo-4-(phenylamino)butyl)-1-phenyl-1H-imidazol-2-yl)-3-(1H-pyrazol-4-yl)benzamide] | > 7.30 |
| COC[C@@H]1CCCN1NC(=O)CCCc1cn(-c2ccccc2)c(NC(=O)c2cccc(-c3cn[nH]c3)c2)n1 [Example 53, (S)—N-(4-(4-((2-(methoxymethyl)pyrrolidin-1-yl)amino)-4-oxobutyl)-1-phenyl-1H-imidazol-2-yl)-3-(1H-pyrazol-4-yl)benzamide] | > 7.30 |
| COC[C@H]1CCCN1NC(=O)CCCc1cn(-c2ccccc2)c(NC(=O)c2cccc(-c3cn[nH]c3)c2)n1 [Example 54, (R)—N-(4-(4-((2-(methoxymethyl)pyrrolidin-1-yl)amino)-4-oxobutyl)-1-phenyl-1H-imidazol-2-yl)-3-(1H-pyrazol-4-yl)benzamide] | > 7.30 |
| COC[C@@H]1CCCN1C(=O)CCCc1cn(-c2ccccc2)c(NC(=O)c2cccc(-c3cn[nH]c3)c2)n1 [Example 55, (S)—N-(4-(4-(2-(methoxymethyl)pyrrolidin-1-yl)-4-oxobutyl)-1-phenyl-1H-imidazol-2-yl)-3-(1H-pyrazol-4-yl)benzamide] | > 7.30 |
| COC[C@H]1CCCN1C(=O)CCCc1cn(-c2ccccc2)c(NC(=O)c2cccc(-c3cn[nH]c3)c2)n1 [Example 56, (R)—N-(4-(4-(2-(methoxymethyl)pyrrolidin-1-yl)-4-oxobutyl)-1-phenyl-1H-imidazol-2-yl)-3-(1H-pyrazol-4-yl)benzamide] | > 7.30 |
| O=C(O)CCCc1cn(-c2ccccc2)c(NC(=O)c2cccc(-c3cn[nH]c3)c2)n1 [Example 57, 4-(2-(3-(1H-pyrazol-4-yl)benzamido)-1-phenyl-1H-imidazol-4-yl)butanoic acid] | > 7.30 |
| COC(=O)CCCc1cn(-c2ccccc2)c(NC(=O)c2cccc(-c3cn[nH]c3)c2)n1 [Example 58, methyl 4-(2-(3-(1H-pyrazol-4-yl)benzamido)-1-phenyl-1H-imidazol-4-yl)butanoate] | > 7.30 |
| O=C(Nc1nc(CCCC(=O)N2CCCCC2)cn1-c1ccccc1)c1cccc(-c2cn[nH]c2)c1 [Example 59, N-(4-(4-oxo-4-(piperidin-1-yl)butyl)-1-phenyl-1H-imidazol-2-yl)-3-(1H-pyrazol-4-yl)benzamide] | > 7.30 |
| CNC(=O)CCCc1cn(-c2ccccc2)c(NC(=O)c2cccc(-c3cn[nH]c3)c2)n1 [Example 60, N-(4-(4-(methylamino)-4-oxobutyl)-1-phenyl-1H-imidazol-2-yl)-3-(1H-pyrazol-4-yl)benzamide] | > 7.30 |
| C[C@@H]1CCCCN1C(=O)CCCc1cn(-c2ccccc2)c(NC(=O)c2cccc(-c3cn[nH]c3)c2)n1 [Example 61, (R)—N-(4-(4-(2-methylpiperidin-1-yl)-4-oxobutyl)-1-phenyl-1H-imidazol-2-yl)-3-(1H-pyrazol-4-yl)benzamide] | > 7.30 |
| C[C@H]1CCCCN1C(=O)CCCc1cn(-c2ccccc2)c(NC(=O)c2cccc(-c3cn[nH]c3)c2)n1 [Example 62, (S)—N-(4-(4-(2-methylpiperidin-1-yl)-4-oxobutyl)-1-phenyl-1H-imidazol-2-yl)-3-(1H-pyrazol-4-yl)benzamide] | > 7.30 |
| C[C@@H]1CCC[C@H](C)N1C(=O)CCCc1cn(-c2ccccc2)c(NC(=O)c2cccc(-c3cn[nH]c3)c2)n1 [Example 63, N-(4-(4-((2R,6S)-2,6-dimethylpiperidin-1-yl)-4-oxobutyl)-1-phenyl-1H-imidazol-2-yl)-3-(1H-pyrazol-4-yl)benzamide] | > 7.30 |
